Laboratory results as given in article PMC11589570, “Critical assessment of LC3/GABARAP ligands used for degrader development and ligandability of LC3/GABARAP binding pockets” (Nature Communications, 2024).
“And” between values parts separate entries of the source, which are not always exact repeats. Equal entries are not always repeated.

Assays:
LC3A = LC3A (Homo sapiens, UniProt Q9H492); assay: Isothermal titration calorimetry (ITC); type: binding; conditions: LC3A
RPE1 cells = assay: Cell growth assay (IncuCyte confluence over 72 h); type: cell-based; conditions: listed as 10O5
Procedure, shortened: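 Phase confluence (% area covered by cells) imaged every 2 h for 72 h after compound addition; cells in DMEM/10% FBS, seeded 24 h before treatment. Controls were 0.1% DMSO, 250 nM Torin1 and 200 ng/mL Bafilomycin (final). Each point averages three wells.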

U2OS cells = assay: Cell growth assay (IncuCyte confluence over 72 h); type: cell-based; design: key to U2OS cell growth: % of well area covered by cells (confluence)
Procedure, shortened: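 U2OS cells were grown in DMEM with 10% FBS for 24 h before treatment. Confluence was then tracked by IncuCyte phase imaging over 72 h and expressed as % of well area covered by cells. Each point is the average of three wells.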

[1] = system: RPE-1 GFP-LC3B-RPF-LC3∆G reporter cell line; assay: Autophagy flux assay; type: cell-based; conditions: rebuttal letter

SMILES: O=C1Nc2ccc(I)cc2C1=Cc1cc(Br)c(O)c(Br)c1 [compound 4]
- outcome of ITC titration (LC3A): low solubility in the buffer system
- outcome of ITC titration (LC3A; listed as 10O5): induced protein precipitation
- RPE1 cell growth (RPE1 cells; 100 nM, 0 h): 16 and 14
- RPE1 cell growth (RPE1 cells; 100 nM, 2 h): 20 and 13 and 18
- RPE1 cell growth (RPE1 cells; 100 nM, 4 h): 23 and 14 and 19
- RPE1 cell growth (RPE1 cells; 100 nM, 6 h): 26 and 14 and 18
- RPE1 cell growth (RPE1 cells; 100 nM, 8 h): 27 and 16 and 19
- RPE1 cell growth (RPE1 cells; 100 nM, 10 h): 28 and 17 and 21
- RPE1 cell growth (RPE1 cells; 500 nM, 0 h): 20 and 18 and 16
- RPE1 cell growth (RPE1 cells; 500 nM, 2 h): 24 and 18
- RPE1 cell growth (RPE1 cells; 500 nM, 4 h): 27 and 19
- RPE1 cell growth (RPE1 cells; 500 nM, 6 h): 29 and 20 and 19
- RPE1 cell growth (RPE1 cells; 500 nM, 8 h): 32 and 21 and 20
- RPE1 cell growth (RPE1 cells; 500 nM, 10 h): 35 and 22
- RPE1 cell growth (RPE1 cells; 1 uM, 0 h): 15 and 13 and 19
- RPE1 cell growth (RPE1 cells; 1 uM, 2 h): 18 and 17
- RPE1 cell growth (RPE1 cells; 1 uM, 4 h): 20 and 18
- RPE1 cell growth (RPE1 cells; 1 uM, 6 h): 21 and 24 and 20
- RPE1 cell growth (RPE1 cells; 1 uM, 8 h): 21 and 25 and 22
- RPE1 cell growth (RPE1 cells; 1 uM, 10 h): 23 and 26 and 22
- RPE1 cell growth (RPE1 cells; 1 uM, 12 h): 25
- RPE1 cell growth (RPE1 cells; 3 uM, 0 h): 13 and 19 and 16
- RPE1 cell growth (RPE1 cells; 3 uM, 2 h): 17 and 19
- RPE1 cell growth (RPE1 cells; 3 uM, 4 h): 20 and 18
- RPE1 cell growth (RPE1 cells; 3 uM, 6 h): 23 and 21 and 19
- RPE1 cell growth (RPE1 cells; 3 uM, 8 h): 26 and 20 and 19
- RPE1 cell growth (RPE1 cells; 3 uM, 10 h): 27 and 24 and 21
- RPE1 cell growth (RPE1 cells; 3 uM, 12 h): 30 and 23
- RPE1 cell growth (RPE1 cells; 5 uM, 0 h): 16 and 15 and 17
- RPE1 cell growth (RPE1 cells; 5 uM, 2 h): 20 and 16 and 19
- RPE1 cell growth (RPE1 cells; 5 uM, 4 h): 21 and 17
- RPE1 cell growth (RPE1 cells; 5 uM, 6 h): 24 and 17 and 20
- RPE1 cell growth (RPE1 cells; 5 uM, 8 h): 29 and 19 and 21
- RPE1 cell growth (RPE1 cells; 5 uM, 10 h): 28 and 19 and 23
- RPE1 cell growth (RPE1 cells; 10 uM, 0 h): 16 and 21 and 17
- RPE1 cell growth (RPE1 cells; 10 uM, 2 h): 22 and 20
- RPE1 cell growth (RPE1 cells; 10 uM, 4 h): 25 and 21 and 22
- RPE1 cell growth (RPE1 cells; 10 uM, 6 h): 29 and 22
- RPE1 cell growth (RPE1 cells; 10 uM, 8 h): 30 and 26 and 23
- RPE1 cell growth (RPE1 cells; 10 uM, 10 h): 31 and 28 and 24
- U2OS cell growth (U2OS cells; 100 nM, time 0 h, listed as 10O5): 16.9992 and 15.7304 and 22.471
- U2OS cell growth (U2OS cells; 100 nM, time 2 h, listed as 10O5): 30.0536 and 23.3693 and 30.9556
- U2OS cell growth (U2OS cells; 100 nM, time 4 h, listed as 10O5): 26.8783 and 18.0548 and 26.389
- U2OS cell growth (U2OS cells; 100 nM, time 6 h, listed as 10O5): 32.427 and 24.5344 and 29.4691
- U2OS cell growth (U2OS cells; 500 nM, time 0 h, listed as 10O5): 22.1626 and 25.7214 and 24.1436
- U2OS cell growth (U2OS cells; 500 nM, time 2 h, listed as 10O5): 30.4879 and 29.4429 and 31.5602
- U2OS cell growth (U2OS cells; 500 nM, time 4 h, listed as 10O5): 27.0048 and 26.6361 and 29.202
- U2OS cell growth (U2OS cells; 500 nM, time 6 h, listed as 10O5): 26.7875 and 33.8054 and 33.8287
- U2OS cell growth (U2OS cells; 500 nM, time 8 h): 33.7413
- U2OS cell growth (U2OS cells; 500 nM, time 10 h): 39.0222
- U2OS cell growth (U2OS cells; 1 uM, time 0 h, listed as 10O5): 28.8978 and 24.3384 and 24.2638
- U2OS cell growth (U2OS cells; 1 uM, time 2 h, listed as 10O5): 33.9341 and 25.1214 and 23.3142
- U2OS cell growth (U2OS cells; 1 uM, time 4 h, listed as 10O5): 34.8975 and 25.1189 and 23.4121
- U2OS cell growth (U2OS cells; 1 uM, time 6 h, listed as 10O5): 36.2035 and 30.6761 and 30.4629
- U2OS cell growth (U2OS cells; 1 uM, time 8 h, listed as 10O5): 37.0589 and 28.0551 and 29.5538
- U2OS cell growth (U2OS cells; 1 uM, time 10 h, listed as 10O5): 40.6527 and 32.3336 and 34.2928
- U2OS cell growth (U2OS cells; 1 uM, time 12 h, listed as 10O5): 39.0418
- U2OS cell growth (U2OS cells; 3 uM, time 0 h, listed as 10O5): 28.8395 and 29.1487 and 34.5356
- U2OS cell growth (U2OS cells; 3 uM, time 2 h, listed as 10O5): 33.8786 and 32.6567 and 36.3335
- U2OS cell growth (U2OS cells; 3 uM, time 4 h, listed as 10O5): 28.2335 and 26.3394 and 40.569
- U2OS cell growth (U2OS cells; 3 uM, time 6 h, listed as 10O5): 37.1398 and 33.8156 and 39.1483
- U2OS cell growth (U2OS cells; 3 uM, time 8 h, listed as 10O5): 34.9068 and 36.3207 and 39.5562
- U2OS cell growth (U2OS cells; 3 uM, time 10 h, listed as 10O5): 41.312 and 42.3386 and 42.5694
- U2OS cell growth (U2OS cells; 3 uM, time 12 h, listed as 10O5): 40.1427
- U2OS cell growth (U2OS cells; 5 uM, time 0 h, listed as 10O5): 31.0558 and 26.3625 and 29.5321
- U2OS cell growth (U2OS cells; 5 uM, time 2 h, listed as 10O5): 36.0354 and 28.3396 and 34.1005
- U2OS cell growth (U2OS cells; 5 uM, time 4 h, listed as 10O5): 37.417 and 32.4374 and 40.4577
- U2OS cell growth (U2OS cells; 5 uM, time 6 h, listed as 10O5): 38.4528 and 33.2156 and 39.1806
- U2OS cell growth (U2OS cells; 5 uM, time 8 h, listed as 10O5): 37.3748 and 33.0274 and 39.2246
- U2OS cell growth (U2OS cells; 5 uM, time 10 h, listed as 10O5): 41.1433 and 35.6497 and 45.4152
- U2OS cell growth (U2OS cells; 10 uM, time 0 h, listed as 10O5): 20.3118 and 28.5412 and 26.4263
- U2OS cell growth (U2OS cells; 10 uM, time 2 h, listed as 10O5): 23.006 and 27.9929 and 32.8968
- U2OS cell growth (U2OS cells; 10 uM, time 4 h, listed as 10O5): 30.6648 and 35.9437 and 41.1141
- U2OS cell growth (U2OS cells; 10 uM, time 6 h, listed as 10O5): 29.7401 and 38.8973 and 43.1309
- U2OS cell growth (U2OS cells; 10 uM, time 8 h, listed as 10O5): 28.0658 and 36.5966 and 41.861
- U2OS cell growth (U2OS cells; 10 uM, time 10 h, listed as 10O5): 30.9876 and 40.5217 and 49.4843
- autophagy induction (autophagy flux) [1]: did not induce autophagy
- effects on cell growth (Incucyte life cell imaging) [1]: No induction of autophagy or effects
